Our source for the TGI values is PubChem BioAssay (NCI).

Among the test systems are UACC-257 melanoma; HT29 colon; SK-MEL-28 melanoma; SF-539 CNS; HCC-2998 colon; T-47D breast; RPMI-8226 leukemia; MCF7 breast; A549 NSCLC; SF-268 CNS; TK-10 renal; IGROV1 ovarian; SW-620 colon; CAKI-1 renal; K-562 leukemia; MDA-N; NCI/ADR-RES ovarian; MOLT-4 leukemia; MALME-3M melanoma.
What all share (assay): growth of human tumour cells (NCI), 48 h

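Five concentrations, 48 hours, 96-well plates. TGI marks complete inhibition of growth.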

For `COc1ccc(CNc2nc3ccccc3nc2C(=O)O)cc1`, the TGI in the experiment on UACC-257 melanoma, in the experiment with HT29 colon, in the experiment on SK-MEL-28 melanoma, in the experiment with SF-539 CNS, with HCC-2998 colon and in the experiment with T-47D breast was over 100 µM throughout. Moreover, the TGI was 68.2 µM in the experiment on RPMI-8226 leukemia; over 100 µM in the experiment with MCF7 breast; over 100 µM with A549 NSCLC; over 100 µM with SF-268 CNS; over 100 µM with TK-10 renal; over 100 µM in the experiment on IGROV1 ovarian. The TGI in the experiment on SW-620 colon, with CAKI-1 renal, with K-562 leukemia, with MDA-N and in the experiment with NCI/ADR-RES ovarian was over 100 µM throughout.
As for `COCCN1C(=O)C2c3[nH]c4ccccc4c3C3CCC(C(C)(C)C)CC3C2C1=O` (stereo not given), the TGI is 31.8 µM in the experiment with UACC-257 melanoma; 27 µM in the experiment with HT29 colon; 32.3 µM with SK-MEL-28 melanoma; 35.6 µM in the experiment with SF-539 CNS; 42.9 µM in the experiment on HCC-2998 colon; 38.5 µM with T-47D breast. Moreover, the TGI in the experiment on RPMI-8226 leukemia was 39.5 µM; in the experiment with MCF7 breast, 43.3 µM; with A549 NSCLC, 39.5 µM; in the experiment with SF-268 CNS it was 37.6 µM; in the experiment on TK-10 renal it was over 10 µM; in the experiment with MOLT-4 leukemia, over 10 µM. Moreover, the TGI in the experiment on IGROV1 ovarian is 43.4 µM; in the experiment on SW-620 colon it was 35.5 µM; with CAKI-1 renal, 37.6 µM; in the experiment with K-562 leukemia it was over 100 µM; with MDA-N, 30.1 µM; with NCI/ADR-RES ovarian, 42.6 µM.
With `c1cc2c(cc1C1=NCCN1)c1cc(C3=NCCN3)ccc1n2CC1CCCCC1`, the TGI in the experiment with UACC-257 melanoma was 59.3 µM; in the experiment with HT29 colon it was over 100 µM; in the experiment with SK-MEL-28 melanoma, 26.7 µM; in the experiment on MALME-3M melanoma, 23.8 µM; with SF-539 CNS, 19.2 µM; in the experiment on T-47D breast it was 84.7 µM. The TGI in the experiment with RPMI-8226 leukemia is over 100 µM; in the experiment on A549 NSCLC, over 100 µM; in the experiment on SF-268 CNS, 22.2 µM; in the experiment with TK-10 renal, over 100 µM; with MOLT-4 leukemia, 34.8 µM; in the experiment with IGROV1 ovarian, 69.7 µM. Also, the TGI in the experiment on SW-620 colon, in the experiment on CAKI-1 renal, with K-562 leukemia, with MDA-N and with NCI/ADR-RES ovarian was over 100 µM throughout.
With `NN/C(=N\S(=O)(=O)c1ccc(S(=O)(=O)c2ccccc2)s1)Nc1ccc(Cl)cc1`, the TGI in the experiment with UACC-257 melanoma is 67.5 µM; in the experiment with HT29 colon it was 65.4 µM; in the experiment on SK-MEL-28 melanoma, over 100 µM; in the experiment on SF-539 CNS, over 100 µM; in the experiment on T-47D breast, 59.3 µM; with RPMI-8226 leukemia, over 100 µM. Besides, the TGI in the experiment on MCF7 breast was over 100 µM; in the experiment on A549 NSCLC, over 100 µM; with TK-10 renal, over 100 µM; in the experiment on MOLT-4 leukemia, 41.2 µM; with IGROV1 ovarian, 88.7 µM; with SW-620 colon it was over 100 µM. Moreover, the TGI with CAKI-1 renal was over 100 µM; in the experiment with K-562 leukemia, over 100 µM; with MDA-N it was 41.8 µM; in the experiment on NCI/ADR-RES ovarian, over 100 µM.
Consider `COC(=O)c1cc(/C=C\c2cc(OC)ccc2OC)ccc1OC`, for which the TGI in the experiment with UACC-257 melanoma is 96.5 µM; in the experiment with HT29 colon, over 100 µM; in the experiment on SK-MEL-28 melanoma, 59.7 µM; in the experiment with SF-539 CNS, over 100 µM; in the experiment with HCC-2998 colon, 45.7 µM; in the experiment on T-47D breast it was 52.1 µM. Besides, the TGI with RPMI-8226 leukemia was 44.5 µM; in the experiment on MCF7 breast it was 84.4 µM; in the experiment on A549 NSCLC it was over 100 µM; in the experiment with SF-268 CNS, over 100 µM; in the experiment with TK-10 renal, over 100 µM; with MOLT-4 leukemia, 41.7 µM. The TGI is 42.2 µM in the experiment on IGROV1 ovarian; over 100 µM with SW-620 colon; over 100 µM in the experiment with CAKI-1 renal; 86 µM in the experiment with K-562 leukemia; over 100 µM in the experiment with MDA-N; over 100 µM in the experiment with NCI/ADR-RES ovarian.
On to `NC(=O)Oc1ccccc1`, for which the TGI in the experiment with UACC-257 melanoma, with HT29 colon, in the experiment with SK-MEL-28 melanoma, in the experiment on HCC-2998 colon, in the experiment with T-47D breast and in the experiment on MCF7 breast was over 100 µM throughout. Besides, the TGI in the experiment with A549 NSCLC, with SF-268 CNS, in the experiment on TK-10 renal, in the experiment with MOLT-4 leukemia, in the experiment with SW-620 colon and with K-562 leukemia was over 100 µM in each case. Besides, the TGI in the experiment on MDA-N and with NCI/ADR-RES ovarian was over 100 µM throughout.
With `CC/C(=C\c1ccc(OC)cc1)c1ccc(OC)cc1`, the TGI in the experiment with UACC-257 melanoma, in the experiment with HT29 colon, with MALME-3M melanoma, in the experiment with SF-539 CNS, in the experiment on HCC-2998 colon and in the experiment on RPMI-8226 leukemia was over 100 µM each time. The TGI in the experiment with MCF7 breast, in the experiment on A549 NSCLC, in the experiment with SF-268 CNS, in the experiment on TK-10 renal, in the experiment with MOLT-4 leukemia and in the experiment with IGROV1 ovarian was over 100 µM each time. Further, the TGI in the experiment on SW-620 colon, in the experiment with CAKI-1 renal, in the experiment with K-562 leukemia, in the experiment with MDA-N and in the experiment with NCI/ADR-RES ovarian was over 100 µM throughout.
On to `CC(C)(C)[Si](C)(C)OC[C@H](/C=C\CCCC(=O)O)NC1(c2ccccc2)c2ccccc2-c2ccccc21`, for which the TGI in the experiment on UACC-257 melanoma was 43.4 µM; in the experiment with HT29 colon, 47.6 µM; in the experiment on SK-MEL-28 melanoma it was 33 µM; in the experiment on SF-539 CNS it was 31.3 µM; in the experiment with HCC-2998 colon, 37.2 µM; in the experiment with T-47D breast, over 100 µM. Also, the TGI was 23.3 µM in the experiment with RPMI-8226 leukemia; 34.5 µM in the experiment with MCF7 breast; over 100 µM in the experiment on A549 NSCLC; 35.4 µM in the experiment on SF-268 CNS; over 100 µM in the experiment on TK-10 renal; 33.9 µM in the experiment on MOLT-4 leukemia. The TGI with IGROV1 ovarian is 97 µM; in the experiment on SW-620 colon, over 100 µM; in the experiment on CAKI-1 renal, 93.9 µM; with K-562 leukemia, 45.5 µM; in the experiment on MDA-N, over 100 µM; in the experiment with NCI/ADR-RES ovarian, 61 µM.
